Measurements as given in patent publication US20230145822A1 (priority 2020, published 2023).
Entries after “also recorded” stand apart in the source; their conditions may differ. Where two headings read alike, the source gives them in different places.

Assays:
[1] = tested on: LC3II; type: cell-based
[2] = tested on: HEK293 cells
[3] = tested on: PrP^C mRNA; type: cell-based, human
[4] = tested on: EGFP-PrP^C; type: cell-based, mouse; conditions: 24 h, 3-10 μM
[5] = tested on: NEGR-1; type: cell-based
[6] = target: PrP^C (Mus musculus, UniProt P04925); type: cell-based; conditions: 1-10 μM, 24 h, PNGase-F
Sequence of PrP^C (P04925 23-254 limits assumed): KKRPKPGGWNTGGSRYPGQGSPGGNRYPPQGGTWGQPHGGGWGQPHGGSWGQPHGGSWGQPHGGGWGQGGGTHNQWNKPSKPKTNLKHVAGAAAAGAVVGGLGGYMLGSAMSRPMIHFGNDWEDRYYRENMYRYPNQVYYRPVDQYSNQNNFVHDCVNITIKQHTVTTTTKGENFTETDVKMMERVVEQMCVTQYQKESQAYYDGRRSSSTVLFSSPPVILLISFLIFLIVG

[7] = tested on: PrP^C mRNA; type: cell-based, mouse
[8] = tested on: mouse PrP^C mRNA; type: cell-based
[9] = target: human PrP^C (Homo sapiens, UniProt P04156); type: cell-based
[10] = tested on: ZR-75 cells; conditions: human
[11] = tested on: RML prion strain; type: cell-based, mouse

OC[C@H]1O[C@H](O[C@H]2O[C@H](CO)[C@@H](O)[C@H](O)[C@H]2O)[C@H](O)[C@@H](O)[C@@H]1O [trehalose, reference compound]
LC3II levels [1]: increased LC3-II levels

COc1cc(C2CC(=O)Nc3c2cnn3-c2ccc(Br)cc2)ccc1O (stereo not shown) [SM875]
LC3II levels [1]: large increase; also recorded: much smaller increase
cytotoxicity [2]: evident cytotoxicity
estimated median lethal dose, LD50 ([2]; human): 4.6 µM
PrP^C mRNA levels [3]: does not decrease PrP^C mRNA levels
cell surface EGFP-PrP^C [4]: drastic reduction
effect on control protein NEGR-1 [5]: did not produce any effect
alpha-cleavage (C1 PrP) [6]: dose-dependent increase of Cl PrP
PrP^C mRNA levels [7]: does not decrease PrP^C mRNA levels
PrP^C mRNA levels [8]: does not decrease PrP^C mRNA levels

CO/C1=C\C(C)=C\[C@@H](C)[C@@H](O)[C@@H](C)C/C(C)=C/C=C/[C@H](OC)[C@@H]([C@@H](C)[C@@H](O)[C@H](C)[C@@]2(O)C[C@@H](O)[C@H](C)[C@@H](C(C)C)O2)OC1=O [BAF, Bafilomycin A1, reference compound]
effect on SM875-induced decrease of PrP^C levels [9]: almost completely prevents

COc1cc(C2CC(=O)Nc3c2cnn3-c2ccc(I)cc2)ccc1O (stereo not shown) [GC6]
IC25 [9]: sub-micromolar
IC50 [9]: sub-micromolar
effect on PrP^C expression [9]: even more prominent activity in ZR-75 cells than in HEK293 cells

Cc1ccccc1Cn1c(=O)c2c(nc3n(-c4ccccc4O)c(C)c(C)n23)n(C)c1=O [SM940]
concentration inducing cell death ([2]; human): > 30 µM
concentration inducing cell death [10]: > 30 µM
concentration from which human PrP^C expression is suppressed [9]: ≥ 3 µM
PrP^C mRNA levels [8]: do not suppress mouse PrP^C mRNA levels

OCC(O)Cn1c2ccc(Br)cc2c2cc(Br)ccc21 (stereo not shown) [SM930]
concentration inducing cell death ([2]; human): 30 µM
concentration inducing cell death [10]: 30 µM
concentration from which human PrP^C expression is suppressed [9]: ≥ 3 µM

Fe(III)-TMPyP
prion levels (PK-resistant PrP) [11]: inhibits prion levels

COc1cc(C2CC(=O)Nc3c2cnn3-c2cccc(F)c2)ccc1O (stereo not shown) [SM898]
estimated median lethal dose, LD50 ([2]; human): 37.9 µM
reduction of cytotoxicity versus SM875 ([2]; human): ~3 times

COc1cc2c(cc1OC)CN(C(=O)c1cccc(Cl)c1)CC2 [SM950]
concentration inducing cell death ([2]; human): ≥ 3 µM
concentration inducing cell death [10]: 30 µM
concentration from which human PrP^C expression is suppressed [9]: ≥ 1 µM
PrP^C mRNA levels [8]: do not suppress mouse PrP^C mRNA levels
